Assay results reported in article PMC10254914, “Targeting Transcriptional CDKs 7, 8, and 9 with Anilinopyrimidine Derivatives as Anticancer Agents: Design, Synthesis, Biological Evaluation and In Silico Studies” (Molecules, 2023).

Legend:
[1] = test system: normal fibroblast cell line, WI-38; assay: MTT cytotoxicity in normal fibroblasts WI-38; details: Homo sapiens, WI-38, read-out: IC50 (µM) WI-38
Procedure: The MTT assay was performed to evaluate the in vitro antitumor activity of the synthesized 4-anilinoquinazolines according to a previously reported method [59, 60, 61, 62, 63].

[2] = test system: HeLa (cervical epithelioid carcinoma); assay: MTT antiproliferative assay, HeLa; details: Homo sapiens, read-out: IC50 (µM) HeLa
Excerpt: (§1) The cell lines mentioned above were used to determine the inhibitory effects of the compounds on cell growth using the MTT assay.

[3] = test system: HCT116 (colorectal carcinoma); assay: MTT antiproliferative assay, HCT116; details: Homo sapiens, HCT-116, read-out: IC50 (µM) HCT116
Excerpt: as §1

[4] = test system: MCF7 (mammary gland breast cancer); assay: MTT antiproliferative assay, MCF7; details: Homo sapiens, MCF7, read-out: IC50 (µM) MCF7
Excerpt: as §1

[5] = test system: HepG2 (hepatocellular carcinoma); assay: MTT antiproliferative assay, HepG2; details: Homo sapiens, HepG2, read-out: IC50 (µM) HepG2
Excerpt: as §1

[6] = biological target: CDK7/CycT1 (Homo sapiens, UniProt P50613); assay: In vitro CDK7 enzyme inhibition assay
Chain of CDK7/CycT1 (P50613 whole entry): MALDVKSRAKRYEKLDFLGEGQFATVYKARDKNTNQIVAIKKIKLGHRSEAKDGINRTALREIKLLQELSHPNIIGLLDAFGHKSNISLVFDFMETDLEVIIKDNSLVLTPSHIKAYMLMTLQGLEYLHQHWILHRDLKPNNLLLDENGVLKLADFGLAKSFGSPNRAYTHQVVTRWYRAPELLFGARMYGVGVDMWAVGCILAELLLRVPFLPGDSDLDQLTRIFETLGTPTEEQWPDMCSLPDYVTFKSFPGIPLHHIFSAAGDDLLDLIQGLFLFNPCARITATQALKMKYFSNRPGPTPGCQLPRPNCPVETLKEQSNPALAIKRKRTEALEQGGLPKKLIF
Chain of CDK7/CycT1 (P51946 whole entry partner): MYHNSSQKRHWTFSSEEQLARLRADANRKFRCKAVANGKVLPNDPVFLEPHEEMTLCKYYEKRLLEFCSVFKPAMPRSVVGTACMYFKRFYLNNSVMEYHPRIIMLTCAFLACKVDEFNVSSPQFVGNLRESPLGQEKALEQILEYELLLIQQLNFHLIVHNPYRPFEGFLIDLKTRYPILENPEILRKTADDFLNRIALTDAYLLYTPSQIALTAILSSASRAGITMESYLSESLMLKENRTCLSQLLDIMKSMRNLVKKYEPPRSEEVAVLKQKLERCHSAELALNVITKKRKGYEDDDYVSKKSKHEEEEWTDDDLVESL
Procedure: (§2) The CDK enzyme assay was performed as previously described [63].

[7] = biological target: CDK8 (Homo sapiens, UniProt P49336); assay: In vitro CDK8 enzyme inhibition assay
Chain of CDK8 (P49336 whole entry): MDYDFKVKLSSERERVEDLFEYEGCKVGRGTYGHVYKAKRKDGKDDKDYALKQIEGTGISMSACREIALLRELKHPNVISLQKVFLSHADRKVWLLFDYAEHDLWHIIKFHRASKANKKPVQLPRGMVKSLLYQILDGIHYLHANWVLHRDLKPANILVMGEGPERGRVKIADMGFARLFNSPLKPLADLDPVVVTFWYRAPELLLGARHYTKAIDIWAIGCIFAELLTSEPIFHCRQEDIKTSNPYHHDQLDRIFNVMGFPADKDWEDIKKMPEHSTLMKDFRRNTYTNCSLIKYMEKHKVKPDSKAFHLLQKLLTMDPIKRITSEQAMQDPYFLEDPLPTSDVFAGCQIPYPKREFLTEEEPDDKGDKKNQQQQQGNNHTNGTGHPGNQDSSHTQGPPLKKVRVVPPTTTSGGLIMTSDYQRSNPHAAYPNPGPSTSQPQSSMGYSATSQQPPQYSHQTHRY
Chain of CDK8 (P24863 whole entry partner): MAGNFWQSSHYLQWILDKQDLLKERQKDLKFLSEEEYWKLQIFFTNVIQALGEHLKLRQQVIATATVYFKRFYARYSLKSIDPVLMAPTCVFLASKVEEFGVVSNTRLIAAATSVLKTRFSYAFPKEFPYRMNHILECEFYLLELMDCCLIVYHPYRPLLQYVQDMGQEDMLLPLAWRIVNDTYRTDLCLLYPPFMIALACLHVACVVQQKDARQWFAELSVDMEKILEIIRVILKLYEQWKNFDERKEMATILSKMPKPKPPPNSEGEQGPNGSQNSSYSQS
Procedure: as §2

[8] = biological target: T1, CDK9/CycT1 (Homo sapiens, UniProt P50750); assay: In vitro CDK9/cyclin T1 enzyme inhibition assay
T1 sequence (P50750 whole entry): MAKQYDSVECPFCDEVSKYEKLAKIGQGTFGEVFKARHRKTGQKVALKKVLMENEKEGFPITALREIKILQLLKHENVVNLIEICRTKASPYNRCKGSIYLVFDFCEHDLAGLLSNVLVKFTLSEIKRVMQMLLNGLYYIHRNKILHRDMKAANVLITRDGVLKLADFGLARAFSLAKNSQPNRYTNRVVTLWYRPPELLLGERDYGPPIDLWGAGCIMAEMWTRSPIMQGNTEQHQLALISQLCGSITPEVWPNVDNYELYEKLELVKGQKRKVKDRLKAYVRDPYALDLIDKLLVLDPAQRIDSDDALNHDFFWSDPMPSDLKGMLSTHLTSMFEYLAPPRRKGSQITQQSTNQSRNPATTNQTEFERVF
T1 sequence (O60563 whole entry partner): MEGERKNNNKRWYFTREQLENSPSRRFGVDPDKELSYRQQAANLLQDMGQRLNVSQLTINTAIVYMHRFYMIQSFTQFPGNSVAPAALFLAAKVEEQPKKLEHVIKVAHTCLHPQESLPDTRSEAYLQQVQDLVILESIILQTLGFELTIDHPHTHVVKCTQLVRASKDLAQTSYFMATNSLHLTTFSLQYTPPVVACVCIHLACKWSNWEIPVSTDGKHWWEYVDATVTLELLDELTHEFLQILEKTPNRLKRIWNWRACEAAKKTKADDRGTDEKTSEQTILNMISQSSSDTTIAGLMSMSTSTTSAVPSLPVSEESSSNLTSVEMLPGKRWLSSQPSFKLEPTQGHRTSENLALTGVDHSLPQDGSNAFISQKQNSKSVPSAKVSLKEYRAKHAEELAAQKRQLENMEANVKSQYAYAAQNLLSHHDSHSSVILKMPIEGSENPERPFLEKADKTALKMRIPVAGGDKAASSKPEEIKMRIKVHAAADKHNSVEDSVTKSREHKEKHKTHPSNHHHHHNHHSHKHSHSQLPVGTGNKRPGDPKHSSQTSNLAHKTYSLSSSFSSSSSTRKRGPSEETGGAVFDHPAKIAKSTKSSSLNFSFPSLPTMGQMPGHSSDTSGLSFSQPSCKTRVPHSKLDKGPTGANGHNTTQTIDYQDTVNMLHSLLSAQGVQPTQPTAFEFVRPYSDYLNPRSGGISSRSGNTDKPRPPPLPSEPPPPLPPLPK
Procedure: as §2

[9] = test system: HCT116, HepG2, HeLa, MCF7 cancer cell lines; assay: MTT assay, ranges over the cancer cell line panel; details: Homo sapiens, read-out: IC50 range over the tested cancer cell lines
Excerpt: as §1

[10] = biological target: T1, CDK9/CycT1; assay: Ligand efficiency and ligand lipophilic efficiency (DataWarrior); details: for LE: LE=−RTlnIC50/N; for LLE: LLE=pIC50−clogP
Procedure: Ligand efficiency is an important parameter that is widely used in the development of drug measures to quantify the molecular properties, particularly the size and lipophilicity of small molecules, required to gain binding affinity to a drug target. The LE values of the synthesized compounds were measured using DataWarrior employing the following equation [48]: LE=−RTlnIC50/N where R is the universal gas constant, T is the absolute temperature in Kelvin, and N represents the number of heavy atoms, that is, non-hydrogen atoms in the drug.
LE is widely used for the selection and optimization of fragments, hits, and leads. […] Compounds with LE values higher than 0.3 are promising lead compounds.
In drug discovery and development, it is challenging to optimize the compound activity while maintaining a constant lipophilicity. As a result, LLE is an effective approach to control molecule lipophilicity to evade any “molecular obesity” through lead optimization. These were obtained via DataWarrior, according to the following equation [50]: LLE=pIC50−clogP
An acceptable lead compound should have an LLE value ≥5. As depicted in Table 6, 5j has acceptable LLE values. However, other compounds have values below the recommended limit.

[11] = IC50 (µM) CDK9/CycT1, dose-response curves, repeated in Table 6
[12] = pIC 50, from the CDK9 IC50 of Table 6

IC50 [2] [µM] | IC50 [3] [µM] | IC50 [4] [µM] | IC50 [5] [µM] | melting point [°C] | IC50 [6] [nM] | IC50 [7] [µM] | IC50 [8, 11] [µM] | IC50 [9] [µM] | LE [10] | LLE [10] | IC50 [8, 12] [µM] | SMILES | IC50 [1] [µM]
15.2 ± 1.2 | 29.1 ± 2 | 10.2 ± 0.9 | 18.9 ± 1.3 | – | – | – | – | – | – | – | – | Nc1nccc(-c2ccc(Cl)cc2)n1 [Compound 3b, 4-(4-chlorophenyl)pyrimidin-2-amine] | 93.9 ± 5.1
86.2 ± 4.3 | > 100 | 62.1 ± 3.6 | 74.4 ± 3.7 | – | – | – | – | – | – | – | – | COc1ccc(-c2ccnc(N)n2)cc1 [Compound 3c, 4-(4-methoxyphenyl)pyrimidin-2-amine] | 58.1 ± 3.6
> 100 | > 100 | 87.1 ± 4.6 | 91.7 ± 4.9 | – | – | – | – | – | – | – | – | Nc1nccc(-c2ccc(C(F)(F)F)cc2)n1 [Compound 3d, 4-(4-(trifluoromethyl)phenyl)pyrimidin-2-amine] | > 100
47 ± 2.6 | 61.3 ± 3.5 | 26.3 ± 1.8 | 39.1 ± 2.3 | – | – | – | – | – | – | – | – | Nc1nccc(-c2ccc(OC(F)(F)F)cc2)n1 [Compound 3e, 4-(4-(trifluoromethoxy)phenyl)pyrimidin-2-amine] | 74.6 ± 4.2
18.2 ± 1.4 | 30.5 ± 2.1 | 6.08 ± 0.4 | 8.18 ± 0.8 | – | – | – | – | – | – | – | – | N#Cc1cnc(N)nc1-c1ccccc1 [Compound 3f, 2-amino-4-phenylpyrimidine-5-carbonitrile] | 55.2 ± 3.2
34.7 ± 2.1 | 45 ± 2.6 | 52.9 ± 2.9 | 44.2 ± 2.5 | – | – | – | – | – | – | – | – | N#Cc1cnc(N)nc1-c1ccc(Cl)cc1 [Compound 3g, 2-amino-4-(4-chlorophenyl)pyrimidine-5-carbonitrile] | 82.7 ± 4.8
82.5 ± 4.1 | 94.2 ± 5.3 | 59 ± 3.4 | 67 ± 3.5 | 214 to 216 | – | – | – | – | – | – | – | N#Cc1cnc(N)nc1-c1ccc(F)cc1 [Compound 3h, 2-amino-4-(4-fluorophenyl)pyrimidine-5-carbonitrile] | > 100
11.5 ± 0.9 | 25.9 ± 1.8 | 3.84 ± 0.2 | 7.84 ± 0.6 | – | 875 | 2.3 | 0.449 | 1 to 10 | 0.3869 | 3.9758 | – | NS(=O)(=O)c1cccc(Nc2nccc(-c3ccccc3)n2)c1 [Compound 5a, 3-((4-Phenylpyrimidin-2-yl)amino)benzenesulfonamide] | 37.9 ± 2.5
36.3 ± 2.3 | 53.8 ± 2.9 | 43.7 ± 2.5 | 40.9 ± 2.4 | – | 3010 | 3.81 | – | – | 0.3683 | 3.3262 | 0.0589 | NS(=O)(=O)c1cccc(Nc2nccc(-c3ccc(Cl)cc3)n2)c1 [Compound 5b, 3-((4-(4-Chlorophenyl)pyrimidin-2-yl)amino)benzenesulfonamide] | 78.5 ± 4.4
29.8 ± 2.1 | 38.1 ± 2.4 | 16.1 ± 1.3 | 24.4 ± 1.8 | – | 966 | 6.3 | – | – | 0.3538 | 4.0076 | 0.246 | COc1ccc(-c2ccnc(Nc3cccc(S(N)(=O)=O)c3)n2)cc1 [Compound 5c, 3-((4-(4-Methoxyphenyl)pyrimidin-2-yl)amino)benzenesulfonamide] | 56.3 ± 3.4
22.2 ± 1.7 | 33.8 ± 2.2 | 8.72 ± 0.7 | 11.7 ± 1 | 150 to 152 | 661 | 0.716 | – | 1 to 10 | 0.3254 | 3.0453 | 0.0729 | NS(=O)(=O)c1cccc(Nc2nccc(-c3ccc(C(F)(F)F)cc3)n2)c1 [Compound 5d, 3-((4-(4-(Trifluoromethyl)phenyl)pyrimidin-2-yl)amino)benzenesulfonamide] | 51.9 ± 3.1
38.8 ± 2.5 | 56.6 ± 3.1 | 74 ± 4.2 | 81.3 ± 4.1 | 252 to 254 | 1100 | 1.89 | – | – | 0.3129 | 2.7773 | 0.149 | NS(=O)(=O)c1cccc(Nc2nccc(-c3ccc(OC(F)(F)F)cc3)n2)c1 [Compound 5e, 3-((4-(4-(Trifluoromethoxy)phenyl)pyrimidin-2-yl)amino)benzenesulfonamide] | 64.3 ± 3.9
51.4 ± 2.8 | 65.9 ± 3.7 | 57.2 ± 3.2 | 46.8 ± 2.6 | – | 479 | 1.53 | – | – | 0.3694 | 3.8517 | 0.2 | NS(=O)(=O)c1cccc(Nc2nccc(-c3ccc(F)cc3)n2)c1 [Compound 5f, 3-((4-(4-Fluorophenyl)pyrimidin-2-yl)amino)benzenesulfonamide] | 26.9 ± 2
42.6 ± 2.4 | 57.5 ± 3.4 | 68.2 ± 3.9 | 84.6 ± 4.3 | 265 to 267 | 1340 | 4.19 | 1.74 | – | 0.3393 | 4.8413 | – | NS(=O)(=O)c1cccc(Nc2nccc(-c3ccc([N+](=O)[O-])cc3)n2)c1 [Compound 5g, 3-((4-(4-Nitrophenyl)pyrimidin-2-yl)amino)benzenesulfonamide] | 31.1 ± 2.3
25.4 ± 1.9 | 35.1 ± 2.3 | 14.3 ± 1.2 | 28 ± 2.1 | – | 3180 | 6.56 | – | – | 0.3868 | 4.8844 | 0.191 | NS(=O)(=O)c1cccc(Nc2nccc(-c3ccccn3)n2)c1 [Compound 5h, 3-((4-(Pyridin-2-yl)pyrimidin-2-yl)amino)benzenesulfonamide] | > 100
63.7 ± 3.2 | 72.2 ± 4 | 32.2 ± 2.1 | 52.6 ± 2.9 | – | 4330 | 4.37 | 1.67 | – | 0.3868 | 4.9754 | 1.67 | NS(=O)(=O)c1cccc(Nc2nccc(-c3ccncc3)n2)c1 [Compound 5i, 3-((4-(Pyridin-4-yl)pyrimidin-2-yl)amino)benzenesulfonamide] | 19.7 ± 1.3
92.4 ± 4.8 | > 100 | 71.3 ± 4 | 85.3 ± 4.3 | 288 to 290 | 1460 | 4.05 | – | – | 0.3867 | 5.5526 | 0.111 | NS(=O)(=O)c1cccc(Nc2nccc(-c3cnccn3)n2)c1 [Compound 5j, 3-((4-(Pyrazin-2-yl)pyrimidin-2-yl)amino)benzenesulfonamide] | 60.5 ± 3.7
66.2 ± 3.4 | 75.3 ± 4.3 | 39.5 ± 2.3 | 48.6 ± 2.7 | – | 1730 | 3.66 | 0.613 | – | 0.3384 | 3.4615 | – | N#Cc1cnc(Nc2cccc(S(N)(=O)=O)c2)nc1-c1ccc(Cl)cc1 [Compound 5k, 3-((4-(4-Chlorophenyl)-5-cyanopyrimidin-2-yl)amino)benzenesulfonamide] | 27.1 ± 2.2
74.9 ± 3.7 | 83.7 ± 4.6 | 46 ± 2.6 | 56.2 ± 3.2 | – | 1920 | 1.65 | 0.967 | – | 0.3394 | 3.9856 | – | N#Cc1cnc(Nc2cccc(S(N)(=O)=O)c2)nc1-c1ccc(F)cc1 [Compound 5l, 3-((5-Cyano-4-(4-fluorophenyl)pyrimidin-2-yl)amino)benzenesulfonamide] | 39.3 ± 2.7
9.83 ± 0.7 | 23.6 ± 1.5 | 76.3 ± 4.3 | 88.4 ± 4.6 | – | 703 | 1.43 | 1.96 | – | 0.4289 | 2.9828 | – | N#Cc1cnc(Nc2ccccc2)nc1-c1ccccc1 [Compound 5m, 4-Phenyl-2-(phenylamino)pyrimidine-5-carbonitrile] | 73.3 ± 4.1
– | – | – | 4.5 ± 0.2 | – | – | – | – | – | – | – | – | COc1cccc2c1C(=O)c1c(O)c3c(c(O)c1C2=O)C[C@@](O)(C(=O)CO)C[C@@H]3O[C@H]1C[C@H](N)[C@H](O)[C@H](C)O1 [DOX, Doxorubicin, reference compound] | –
